Experimental data as given in article PMC11876671, “Investigating blood–brain barrier penetration and neurotoxicity of natural products for central nervous system drug development” (Scientific Reports, 2025).

details: not given

Molecule | PAMPA-BBB Pe(10^-6 cm/sec)
COc1cc2c(c3oc(=O)c4c(c13)CCC4=O)[C@@H]1CCO[C@@H]1O2 [DIHYDROAFLATOXINE B1] | 2.8 10^-6 cm/sec
COc1cc2c(c3oc(=O)c4c(c13)CCC4=O)[C@@H]1C=CO[C@@H]1O2 [AFLATOXIN B1] | 7.2 10^-6 cm/sec

same assay, conditions: PAMPA

Molecule | PAMPA-BBB permeability category
Cn1c(=O)c2c(ncn2C)n(C)c1=O [caffeine, reference compound] | low permeability
NC(=O)N1c2ccccc2C=Cc2ccccc21 [carbamazepine, reference compound] | moderate permeability

same assay, conditions: Table S2: compounds exhibiting moderate to high PAMPA-BBB permeability

Molecule | PAMPA-BBB Pe
COC(=O)C1=CO[C@@H](C)[C@@H]2CN3CC[C@]4(C(=O)Nc5c4ccc(OC)c5OC)[C@H]3C[C@H]12 [NCGC00160292-01] | 46 10^-6 cm/sec
COc1cc(C(=O)O[C@H]2CC(C)=CCC/C(C)=C/[C@@H](O)C2C(C)C)ccc1O (stereo partly shown) [NCGC00163636-01] | 88 10^-6 cm/sec
COc1cccc2c(=O)c3ccoc3n(C)c12 [NCGC00160208-01] | 54 10^-6 cm/sec
CC1=CC(=O)C2=C(C)C[C@@H]3OC(=O)[C@@H](C)[C@H]3C=C12 [NCGC00160288-01] | 74 10^-6 cm/sec
COc1cc(O)c2c(c1)/C=C/C[C@H](O)[C@H](O)[C@H](O)CCC[C@H](C)OC2=O [NCGC00189513-01] | 245 10^-6 cm/sec
COc1ccc(C(=O)OC2C[C@H]3CC[C@H](C2)N3C)cc1OC (stereo partly shown) [NCGC00016471-04] | 16 10^-6 cm/sec
O=C1CCC[C@H]2[C@H]3CCCN4CCCC(=CN12)[C@@H]34 [NCGC00160276-01] | 33 10^-6 cm/sec
COc1ccc(C(=O)OC2CC3CC[C@H](C2)N3C(C)=O)cc1OC (stereo partly shown) [NCGC00160255-01] | 22 10^-6 cm/sec
CC1(C)C=Cc2c(ccc(C(=O)/C=C/c3ccccc3)c2O)O1 [NCGC00187466-02] | 10 10^-6 cm/sec
CC(=O)OC(C)(C)[C@@H]1Cc2cc3ccc(=O)oc3cc2O1 [NCGC00178115-02] | 128 10^-6 cm/sec
CN(C)CCc1cc2c(c3c1ccc1ccccc13)OCO2 [NCGC00160247-01] | 27 10^-6 cm/sec
COc1ccc(-c2oc3cc(OC)c(OC)c(OC)c3c(=O)c2OC)cc1 [NCGC00264011-02] | 308 10^-6 cm/sec
c1cnc2c(-c3nccc4c3[nH]c3ccccc34)cccc2c1 [NCGC00160283-01] | 352 10^-6 cm/sec

same assay, conditions: Table S3: compounds exhibiting low PAMPA-BBB permeability

Molecule | PAMPA-BBB Pe(10^-6 cm/sec)
CC1(C)C(=O)C=C[C@@]2(C)C1CC(=O)[C@]1(C)C2CC[C@@]2(C)[C@H](c3ccoc3)OC(=O)[C@H]3O[C@]321 (stereo partly shown) [NCGC00179119-02] | <1 10^-6 cm/sec
C=C/C(C)=C/[C@@]1(C)SC(=O)C(C)=C1O [NCGC00261593-01] | <1 10^-6 cm/sec
Cc1cc(O)c(C=O)c(O)c1C(=O)O [NCGC00095742-01] | 2.7 10^-6 cm/sec
c1ccc2c3c([nH]c2c1)[C@H]1[C@@H]2CC[C@@H]([C@@H]4CCCN[C@@H]42)N1CC3 [NCGC00262532-02] | <1 10^-6 cm/sec
Nc1ncnc2c1ncn2[C@@H]1O[C@H](COP(=O)(O)OP(=O)(O)OC[C@H]2OC(O)[C@H](O)[C@@H]2O)[C@@H](O)[C@H]1O (stereo partly shown) [NCGC00163321-01] | <1 10^-6 cm/sec
COc1cc(C/C=C\c2ccccc2)c(OC)cc1O [NCGC00160148-01] | 1.3 10^-6 cm/sec
C[C@@H]1OC(O[C@H]2[C@H](Oc3cc(O)c4c(=O)c(O)c(-c5ccc(O)cc5)oc4c3)O[C@H](CO)[C@@H](O)[C@@H]2O)[C@H](O)[C@H](O)[C@H]1O (stereo partly shown) [NCGC00163581-01] | <1 10^-6 cm/sec
Cc1c(O)c2c(c(C(=O)/C=C/c3ccccc3)c1O)OC(C)(C)C=C2 [NCGC00187465-01] | <1 10^-6 cm/sec
COc1cc2oc(=O)c3c4c(cc5ccc(c1CCN(C)C)c2c53)OCO4 [NCGC00160212-01] | <1 10^-6 cm/sec
\LYCORINE HYDROCHLORIDE | 3.2 10^-6 cm/sec
COc1ccccc1O[C@@H]1O[C@H](CO)[C@H](O)[C@H](O)[C@H]1O [NCGC00351878-01] | 1.5 10^-6 cm/sec
